Earlier results as cited in article PMC3420346 (Bioorganic & medicinal chemistry, 2012).

Experiments:
[1] = compared with related 9-riboside derivatives

## CNc1nc(I)nc2c1ncn2[C@H]1C[C@H](OP(=O)(O)O)[C@]2(COP(=O)(O)O)C[C@H]12 [Compound 1, (1′R,2′S,4′S,5′S)-4-(2-iodo-6-methylamino-purin-9-yl)-1-[(phosphato)-methyl]-2-(phosphato)-bicyclo[3.1.0]hexane]
Thrombus formation
  Reduction of thrombus formation in vivo: effective in reducing thrombus formation in vivo
[1]
  Resistance to degradation: more resistant to degradation than related 9-riboside derivatives
